Test system: contaminated slurry
Assay: Wet state preservation challenge test: dosed calcium carbonate slurry inoculated repeatedly with contaminated slurry, streaked on nutrient agar, examined for viable colonies; on growth of viable colonies on nutrient agar: key: − = no growth (no visible colonies); <10 = very light growth; + = light growth; ++ = moderate growth; +++ = heavy growth
Assay type: cell-based, bacteria
Design: viable colonies on nutrient agar: unit not given here
Conditions: for test outcome in place of 3rd inoculation: surfactant 0.1, 0.05, 0.025 and 0.01%, test completed after 2nd inoculation; for efficacy in preserving contaminated slurry (summary of Tables 4-8): between 0.03% and 0.09% of biocide A plus the surfactant, compared to biocide A and the surfactant used alone; for growth of viable colonies on nutrient agar: Biocide A 0 %
Experimental: In this example, a calcium carbonate-containing aqueous slurry was sterilized to eradicate bacterial contamination by weighing out 40 g aliquots into 60 g glass bottles and autoclaving the aliquots for 20 minutes at 120° C. A series of samples were prepared by taking the 40 g aliquots of the sterilized slurry and dosing with 0.136, 0.091, 0.046, 0.023, 0.011, and 0% of a biocide composition (“Biocide A”) shown in Table 1 plus 0, 0.01, 0.025, 0.05, and 0.1% of a surfactant as shown in Table 2. All samples were allowed to stand for 24 hours to equilibrate.
After equilibration, each test sample was inoculated with 0.8 g of a contaminated slurry, the bacteria count of which is shown in Table 3. The samples were incubated at 30° C. After a contact time of 6 hours, 1, 2, 3, or 4 days, a small aliquot of each sample was streaked across the surface of nutrient agar, incubated at 30° C. for 48 hours and the surface was examined for viable colonies. The inoculation and assessment procedures were repeated at 3 or 4 day intervals for a period of 3 inoculations.

[1] = Biocide A 0.091%, surfactant 0.01%, 1st inoculation, 0.2 days
[2] = Biocide A 0.136%, surfactant 0.025%, 3rd inoculation, 1 day
[3] = Biocide A 0.136%, surfactant 0.05%, 3rd inoculation, 1 day
[4] = surfactant 0.01 %, 1st inoculation, 0.2 days
[5] = surfactant 0.01 %, 1st inoculation, 1 day
[6] = surfactant 0.01 %, 1st inoculation, 2 days
[7] = surfactant 0.01 %, 1st inoculation, 3 days
[8] = surfactant 0.025 %, 1st inoculation, 0.2 days
[9] = surfactant 0.025 %, 1st inoculation, 1 day
[10] = surfactant 0.025 %, 1st inoculation, 2 days
[11] = surfactant 0.025 %, 1st inoculation, 3 days
[12] = surfactant 0.05 %, 1st inoculation, 0.2 days
[13] = surfactant 0.05 %, 1st inoculation, 1 day
[14] = surfactant 0.05 %, 1st inoculation, 2 days
[15] = surfactant 0.05 %, 1st inoculation, 3 days
[16] = surfactant 0.1 %, 1st inoculation, 0.2 days
[17] = surfactant 0.1 %, 1st inoculation, 1 day
[18] = surfactant 0.1 %, 1st inoculation, 2 days
[19] = surfactant 0.1 %, 1st inoculation, 3 days
[20] = Biocide A 0.091%, surfactant 0.05%, 1st inoculation, 1 day

Structure (SMILES)	test outcome in place of 3rd inoculation (Biocide A 0.023%)	viable colonies on nutrient agar [1]	viable colonies on nutrient agar [2]	efficacy in preserving contaminated slurry (summary of Tables 4-8)	growth of viable colonies on nutrient agar [4]	growth of viable colonies on nutrient agar [5]	growth of viable colonies on nutrient agar [6]	growth of viable colonies on nutrient agar [7]	growth of viable colonies on nutrient agar [8]	growth of viable colonies on nutrient agar [9]	growth of viable colonies on nutrient agar [10]	growth of viable colonies on nutrient agar [11]	growth of viable colonies on nutrient agar [12]	growth of viable colonies on nutrient agar [13]	growth of viable colonies on nutrient agar [14]	growth of viable colonies on nutrient agar [15]	growth of viable colonies on nutrient agar [16]	growth of viable colonies on nutrient agar [17]	growth of viable colonies on nutrient agar [18]	growth of viable colonies on nutrient agar [19]	also measured
CCCCCCCCCCCCc1ccc(S(=O)(=O)O)cc1 [Dodecyl benzene sulfonic acid]	SAMPLES FAILED	<10	<10	improved efficacy	+++	+++	+++	+++	+++	+++	+++	+++	+++	+++	+++	+++	+++	+++	+++	+++	viable colonies on nutrient agar (Biocide A 0.023%, surfactant 0.01%, 1st inoculation, 2 days): <10; viable colonies on nutrient agar (Biocide A 0.023%, surfactant 0.05%, 1st inoculation, 2 days): <10; viable colonies on nutrient agar (Biocide A 0.023%, surfactant 0.05%, 1st inoculation, 3 days): <10; viable colonies on nutrient agar (Biocide A 0.023%, surfactant 0.1%, 1st inoculation, 2 days): <10; viable colonies on nutrient agar (Biocide A 0.023%, surfactant 0.1%, 1st inoculation, 3 days): <10; viable colonies on nutrient agar (Biocide A 0.046%, surfactant 0.025%, 3rd inoculation, 2 days): <10; viable colonies on nutrient agar (Biocide A 0.046%, surfactant 0.05%, 3rd inoculation, 2 days): <10; viable colonies on nutrient agar (Biocide A 0.046%, surfactant 0.1%, 3rd inoculation, 2 days): <10; viable colonies on nutrient agar (Biocide A 0.091%, surfactant 0.01%, 3rd inoculation, 1 day): <10; viable colonies on nutrient agar (Biocide A 0.091%, surfactant 0.05%, 1st inoculation, 0.2 days): <10; viable colonies on nutrient agar (Biocide A 0.091%, surfactant 0.1%, 3rd inoculation, 1 day): <10; viable colonies on nutrient agar (Biocide A 0.136%, surfactant 0.01%, 3rd inoculation, 1 day): <10; viable colonies on nutrient agar [3]: <10
CCCCC(CC)CN(CCC(=O)[O-])CCC(=O)[O-].[Na+].[Na+] (centres unmarked) [Lakeland AMA LF70 ™]	SAMPLES FAILED	<10	<10																		viable colonies on nutrient agar (Biocide A 0.046%, surfactant 0.01%, 1st inoculation, 2 days): <10; viable colonies on nutrient agar (Biocide A 0.046%, surfactant 0.1%, 1st inoculation, 2 days): <10; viable colonies on nutrient agar (Biocide A 0.091%, surfactant 0.01%, 3rd inoculation, 2 days): <10; viable colonies on nutrient agar (Biocide A 0.091%, surfactant 0.025%, 1st inoculation, 3 days): <10; viable colonies on nutrient agar [20]: <10; viable colonies on nutrient agar (Biocide A 0.091%, surfactant 0.05%, 1st inoculation, 3 days): <10; viable colonies on nutrient agar (Biocide A 0.091%, surfactant 0.05%, 3rd inoculation, 2 days): <10; viable colonies on nutrient agar (Biocide A 0.091%, surfactant 0.1%, 1st inoculation, 3 days): <10; viable colonies on nutrient agar (Biocide A 0.091%, surfactant 0.1%, 3rd inoculation, 2 days): <10; viable colonies on nutrient agar (Biocide A 0.136%, surfactant 0.01%, 1st inoculation, 3 days): <10; viable colonies on nutrient agar (Biocide A 0.136%, surfactant 0.05%, 1st inoculation, 1 day): <10; viable colonies on nutrient agar (Biocide A 0.136%, surfactant 0.05%, 1st inoculation, 3 days): <10; viable colonies on nutrient agar [3]: <10; viable colonies on nutrient agar (Biocide A 0.136%, surfactant 0.1%, 1st inoculation, 1 day): <10; viable colonies on nutrient agar (Biocide A 0.136%, surfactant 0.1%, 1st inoculation, 3 days): <10
CCCCCCCCCCCCOS(=O)(=O)[O-].[Na+] [SDS, Sodium dodecyl sulfate]				improved efficacy	+++	+++	+++	+++	+++	+++	+++	+++	+++	+++	+++	+++	+++	+++	+++	+++	viable colonies on nutrient agar (Biocide A 0.023%, surfactant 0.01%, 1st inoculation, 3 days): <10; viable colonies on nutrient agar (Biocide A 0.023%, surfactant 0.025%, 1st inoculation, 1 day): <10; viable colonies on nutrient agar (Biocide A 0.046%, surfactant 0.01%, 1st inoculation, 1 day): <10; viable colonies on nutrient agar (Biocide A 0.046%, surfactant 0.01%, 3rd inoculation, 3 days): <10; viable colonies on nutrient agar (Biocide A 0.046%, surfactant 0.05%, 1st inoculation, 0.2 days): <10; viable colonies on nutrient agar (Biocide A 0.046%, surfactant 0.05%, 2nd inoculation, 1 day): <10; viable colonies on nutrient agar (Biocide A 0.046%, surfactant 0.1%, 1st inoculation, 0.2 days): <10; viable colonies on nutrient agar (Biocide A 0.046%, surfactant 0.1%, 2nd inoculation, 1 day): <10; viable colonies on nutrient agar (Biocide A 0.091%, surfactant 0.025%, 3rd inoculation, 0.2 days): <10
CCCCC(CC)COC(=O)CC(C(=O)OCC(CC)CCCC)S(=O)(=O)[O-].[Na+] (centres unmarked) [Aerosol ® OT, Sodium dioctyl suphosuccinate]	SAMPLES FAILED			improved efficacy	+++	+++	+++	+++	+++	+++	+++	+++	+++	+++	+++	+++	+++	+++	+++	+++	viable colonies on nutrient agar (Biocide A 0.091%, surfactant 0.01%, 1st inoculation, 1 day): <10; viable colonies on nutrient agar [20]: <10; viable colonies on nutrient agar (Biocide A 0.136%, surfactant 0.025%, 1st inoculation, 1 day): <10

— US8317912B2, “Wet state preservation of mineral slurries” (Arch Chemicals, Inc., priority 2011, dated 2012)
